Data as given in article PMC10266688 (PLOS ONE, 2023).
Where “and” joins values, the source holds several entries; their conditions need not be identical. Identical values can stand only once. Each block holds one compound with its values, some of them ahead of it.

What was measured:
[1] = test system: TC1-OVA cells; assay: Antigen presentation (H-2Kb/[…]) by TC1-OVA cells, flow cytometry; type: cell-based, mouse; conditions: 0.25 μM, 12 h
[2] = test system: HMW polyUb proteins in ES2 cells; assay: Western blot for polyubiquitinated proteins; conditions: by 12 h
[3] = target: T1, 42kDa cellular protein (RPN13) (Homo sapiens, UniProt Q16186); assay: Competition for RA190B binding in HeLa cell lysate; conditions: HeLa lysate pre-treated with compound (5 μM) 45 min 4°C, then RA190B (20 μM)
T1 construct: endogenous in cells; host or cells: HeLa cell lysate
T1 sequence (Q16186 2-407): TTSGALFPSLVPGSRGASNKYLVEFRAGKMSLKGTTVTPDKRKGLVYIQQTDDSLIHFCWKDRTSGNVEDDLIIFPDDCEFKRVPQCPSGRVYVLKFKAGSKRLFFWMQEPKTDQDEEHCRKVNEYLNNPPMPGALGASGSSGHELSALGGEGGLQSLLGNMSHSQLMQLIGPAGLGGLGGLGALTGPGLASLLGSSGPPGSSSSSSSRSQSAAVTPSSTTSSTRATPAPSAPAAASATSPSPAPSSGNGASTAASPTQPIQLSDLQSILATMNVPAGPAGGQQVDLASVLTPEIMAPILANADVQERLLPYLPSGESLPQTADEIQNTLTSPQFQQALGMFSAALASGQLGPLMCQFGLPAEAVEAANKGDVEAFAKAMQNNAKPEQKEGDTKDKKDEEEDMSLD
Protocol: NEM (1 mM) used as positive control.

[4] = test system: proteasome (4UbFL reporter); assay: 4UbFL reporter assay in ES2 cells; type: cell-based, human; conditions: 4 h
Protocol: Sub-confluent cultures of cells were transfected with 4UbFL plasmid using TransIT 2020 reagent (Mirus Bio). Cells were seeded at 10,000 cells/well in 96-well plates 48 h post transfection, and incubated with compounds or vehicle (DMSO) at the doses and for the times indicated. Luciferase activity in cell lysate was determined with a luciferase assay kit (Promega) according to the manufacturer’s instructions. Bioluminescence was measured using a Glomax Multidetection system (Promega).
Two days later, luciferin was injected IP and the baseline enzymic activity of luciferase in the transduced muscle tissue was visualized as bioluminescence within this region of interest (ROI) using an IVIS imager. […]. After 4h, 24h and 48h the mice were again injected with luciferin, imaged and bioluminescence was quantified (Fig 5B). […] A) ES2 cells stably transduced with the 4UbFL reporter plasmid were treated with compounds at indicated doses for 4 h. The cells were then washed, lysed and their luminescence measured by a luminometer after addition of luciferin. B) Female CD1 mice electroporated with 4UbFL plasmid in their leg muscle. After 48 h, the mice were injected with luciferin, imaged by IVIS for their basal bioluminescence and randomized into two groups of five. […]. D) Up284 tissue distribution. […].

[5] = test system: HeLa cells; assay: MTT cytotoxicity assay, HeLa cells, 72 h; type: cell-based; conditions: Homo sapiens, 72 h treatment
[6] = test system: SKOV3 cells; assay: MTT cytotoxicity assay, SKOV3 cells, 72 h; type: cell-based; conditions: Homo sapiens, SK-OV-3; 72 h treatment
[7] = test system: proteasome (4UbFL reporter); assay: 4UbFL reporter in ES2-4UbFL tumor and leg muscle of nude mice; type: in vivo, mouse; conditions: single IP dose Up284 20mg/kg or bortezomib 0.75 mg/kg, 4 h and 24 h
Protocol: A-C) Female nude mice were inoculated IP with ES2-luc cells, a human ovarian cancer line expressing luciferase. […] The IP tumor tissue and electroporated normal muscle tissue, being spatially distinct, were identified with separate regions of interest (ROI) after simultaneous imaging with IVIS.
Briefly mice were inoculated IP with ES2 cells stably expressing 4UbFL. After 48 h, the mice were injected with luciferin, imaged and then randomized into 3 groups (n = 5/group). Next, leg muscle of each mouse was electroporated with 4UbFL plasmid (considered as normal tissue). After 48 h (i.e. day 4) the mice were re-imaged and basal bioluminescence (0 h) was separately measured in the leg muscle and peritoneal ROIs.

[8] = Repeat dosing toxicity study: hematologic parameters; conditions: female CD1 mice, Up284 20 mg/kg, Bortezomib 1 mg/kg
[9] = test system: TOV21G and ES2 cells; assay: Annexin V apoptosis assay; conditions: TOV21G and ES2, 12 h

competition for RA190B binding to the 42KDa cellular protein [3]: competed
SMILES: Cl.N[C@@H](Cc1ccccc1)C(=O)N1C/C(=C/c2ccc(Cl)c(Cl)c2)C(=O)/C(=C\c2ccc(Cl)c(Cl)c2)C1 [RA190, reference compound]
MHC class I antigen presentation (SIINFEKL on H-2Kb) [1]: enhance MHC class I presentation
accumulation of HMW polyUb proteins [2]: profound accumulation
stabilization of 4UbFL reporter (fold increase in luminescence) [4]: dose-dependent stabilization

competition for RA190B binding to the 42KDa cellular protein [3]: competed
SMILES: C=CC(=O)N1CCC2(CC1)/C(=C\c1ccc(C#N)cc1)C(=O)/C2=C/c1ccc(C#N)cc1 [Up285]
IC50 [5]: 25 nM
IC50 [6]: 60 nM

SMILES: N#Cc1ccc(/C=C2/C(=O)/C(=C/c3ccc(C#N)cc3)C23CCN(C(=O)c2ccccc2)CC3)cc1 [Up288]
IC50 [5]: 280 nM
IC50 [6]: 390 nM

SMILES: N#Cc1ccc(/C=C2/C(=O)/C(=C/c3ccc(C#N)cc3)C23CCN(C(=O)C(F)(F)F)CC3)cc1 [Up290]
IC50 [5]: 150 nM
IC50 [6]: 290 nM

SMILES: CCCC(CCC)C(=O)N1CCC2(CC1)/C(=C\c1ccc(C#N)cc1)C(=O)/C2=C/c1ccc(C#N)cc1 [Up291]
IC50 [5]: 250 nM
IC50 [6]: 420 nM

SMILES: N#Cc1ccc(/C=C2/C(=O)/C(=C/c3ccc(C#N)cc3)C23CCNC3)cc1 [Up302]
IC50 [5]: 80 nM
IC50 [6]: 170 nM

SMILES: C=CC(=O)N1CCC2(C1)/C(=C\c1ccc(C#N)cc1)C(=O)/C2=C/c1ccc(C#N)cc1 (centres unmarked) [Up306]
IC50 [5]: 50 nM
IC50 [6]: 120 nM

SMILES: CC(C)C[C@H](NC(=O)[C@H](Cc1ccccc1)NC(=O)c1cnccn1)B(O)O [bortezomib]
4UbFL bioluminescence signal in muscle tissue vs tumor [7]: similarly enhanced the bioluminescence signal
MPV ([8]; group Mean): 5.70 fL
MPV ([8]; individual mice): 5.70 fL and 5.60 fL and 5.80 fL
MHC class I antigen presentation (SIINFEKL on H-2Kb) [1]: did not
competition for RA190B binding to the 42KDa cellular protein [3]: did not compete

SMILES: N.N.[Cl][Pt][Cl] [cisplatin, reference compound]
Annexin-V positive cells, single agent [9]: minimal impact
